Experimental findings from patent US11365410B2, “Production and monitoring of metabolites in cells” (President and Fellows of Harvard College, priority 2015, dated 2022) are described below.

Data set [1] concerns prpR-based 3HP biosensor (pcs, prpC, prpR). As to the kind of experiment: prpR-based 3HP biosensor characterization. It counts as cell-based, E. coli. An excerpt:
(§1) According to a first aspect, 3-HP is transformed into 2-methylcitrate in the presence of a 2-methylcitrate sensor. The resulting system is a 3-HP biosensor. The transcriptional regulator prpR from E. coli is used to control gene expression in proportion to the concentration of 2-methylcitrate inside the cell. This inducible system has been described previously with the aim of sensing propionate—a distinct chemical from 3HP (WO 2007005837 A3, http://www.ncbi.nlm.nih.gov/pubmed/16269719). The endogenous enzyme, 2-methylcitrate synthase (prpC), and the heterologous multifunctional enzyme propionyl-CoA synthase (pcs) from the carbon fixation pathway of Chloroflexus aurantiacus (see Mattozzi, M., Ziesack, M., Voges, M. J., Silver, P. A. and Way, J. C. (2013) Expression of the sub-pathways of the Chloroflexus aurantiacus 3-hydroxypropionate carbon fixation bicycle in E. coli: Toward horizontal transfer of autotrophic growth. Metab Eng, 16, 130-139 hereby incorporated by reference in its entirety) are used to produce 2-methylcitrate from 3-HP. Together the system of three genes (pcs, prpC, prpR) comprises the prpR-based 3HP biosensor (see FIG. 15A). […] As a result of this linkage, 3-HP concentration controls expression of green fluorescent protein (GFP). […] The proportion of 2-methylcitrate produced in this way is proportional to the amount of 3-HP inside the cell. The expression of the controlled gene is thus a measurement of intracellular 3-HP concentration.
DH5α cells doubly transformed with plasmids pPro24-GFP and pJKR-PCS, or plasmids pJKR-H-acuR and pJKR-PCSfrag-ACH, were exposed to increasing concentrations of 3-HP and monitored for GFP expression. Cells were grown overnight to saturation before being diluted 1:100 into fresh LB media and incubated at 200 RPM and 37° C. After four hours, 150 μl of the log-phase cells were transferred to 96-well plates and 3HP was added to the appropriate final concentration. Each inoculation and induction was performed in triplicate. Strains lacking the biosensor helper plasmids were included to reveal that the biosensor activation was indeed dependent on the presence of the helper plasmids. In the case of the end-point measurements, fluorescence was measured 16 hours after 3-HP addition with a Biotek HT plate reader (excitation 485/20, emission 528/20). Time course data was collected over a 16 hour period on the same plate reader at 37° C. with fast shaking and 10 minute measurement intervals. Fluorescence was normalized by optical density. Fold induction was determined by dividing the fluorescence obtained at the current induction level by the fluorescence obtained without induction. Error bars represent the 95% confidence interval derived from the standard error of the mean.

In data set [2] the test system is prpR (E. coli). The experiment in a line: prpR-based 3HP biosensor induction (indirect, via 2-methylcitrate). Format: cell-based. Conditions: 12 mM 3-HP; with pcs and prpC.
Description: as §1, with “The expression of the controlled gene is thus a measurement of intracellular 3-HP concentration.” left out

Data set [3] concerns acuR. As to the kind of experiment: acuR-based 3HP biosensor induction (indirect, via acrylate). The following applies: 10 mM 3HP; with pcs^Δ3 and ach. Format: cell-based, Rhodobacter sphaeroides. How it is done:
Metab Eng, 16, 130-139 hereby incorporated by reference in its entirety). All three reactions are useful for a prpR-based biosensor, but for the acuR-based biosensor, accumulation of acrylyl-CoA rather than propionyl-CoA is necessary. […] Accordingly, the domain responsible for conversion of acrylyl-CoA to propionyl-CoA was removed while preserving the activity of the other two domains. […] A 90-fold increase in fluorescence was obtained when the acuR-based biosensor was induced with 10 mM 3HP. […] Fluorescence remained at background levels for greater than 16 hours in the absence of pcs^Δ3 and ach (see FIG. 17).
Plasmids were constructed using Gibson isothermal assembly methods (see Gibson, D. G., Young, L., Chuang, R. Y., Venter, J. C., Hutchison, C. A., 3rd and Smith, H. O. (2009) Enzymatic assembly of DNA molecules up to several hundred kilobases. Nat Methods, 6, 343-345 hereby incorporated by reference in its entirety) and cloned into DH5α electrocompetent cells purchased from New England Biolabs. Biosynthesis of product molecules was carried out in either BL21 (DE3) or DH5α. The prpR-based 3HP biosensor was implemented as a two-plasmid system. The first plasmid is pPro24-GFP (Addgene plasmid #18880), which expresses GFPuv under the control of the methyl-citrate responsive transcription factor, prpR, on a pBR322 origin of replication providing β-lactam resistance. […]

Regarding `O=C(O)CCO` [3-HP, 3-hydroxypropionate], in data set [1] (3-HP induction), the “time to half-maximal fluorescent response” value turned out to be 5 h and the “time to reach 90% induction” value is recorded as “approximately 8 hours”. Further, the “fluorescent response, fold greater than uninduced fluorescence” value in data set [1] (induced with 12 mM 3-HP) was found to be 2.4 fold. Also, the “response of prpR sensor alone” value in data set [1] (without helper enzyme pcs) was “cannot detect”. Also, the “Fluorescent response relative to uninduced” value in data set [2] is 2.4 fold. For the same compound, the Increase in fluorescence in data set [3] was 90 fold.
